Reference: PubChem BioAssay AID248 (DTP/NCI, 2004)
“And” between values parts separate entries of the source, which are not always exact repeats. Equal values may be shown once. Toxic doses and inconclusive results are not listed. No stated cut-off is given here; in the data, active means T/C of 150% or more; inactive means T/C below 125%.

Test system: L1210 leukemia ip in BDF1 mice, survival T/C
Test: NCI In Vivo Anticancer Drug Screen. Data for tumor model L1210 Leukemia (intraperitoneal) in B6D2F1 (BDF1) mice
Conditions: endpoint: mean survival time, higher = longer survival
How it was run: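 Read-out is survival time, reported as the treated-group measurement over the vehicle-control measurement.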

[1] = dose: 100.0 mg/kg/injection, schedule: Q01DX009 (ip), vehicle: Klucel (hydroxypropylcellulose) (HPC)
[2] = dose: 100.0 mg/kg/injection, schedule: Q04DX003 (ip), vehicle: Klucel (hydroxypropylcellulose) (HPC)
[3] = dose: 200.0 mg/kg/injection, schedule: Q01DX009 (ip), vehicle: Klucel (hydroxypropylcellulose) (HPC)
[4] = dose: 200.0 mg/kg/injection, schedule: Q04DX003 (ip), vehicle: Klucel (hydroxypropylcellulose) (HPC)
[5] = dose: 100.0 mg/kg/injection, schedule: Q01DX009 (ip), vehicle: saline
[6] = dose: 100.0 mg/kg/injection, schedule: Q04DX003 (ip), vehicle: saline
[7] = dose: 100.0 mg/kg/injection, schedule: Q01DX001 (ip), vehicle: carboxymethylcellulose (CMC)
[8] = dose: 200.0 mg/kg/injection, schedule: Q01DX001 (ip), vehicle: carboxymethylcellulose (CMC)
[9] = dose: 400.0 mg/kg/injection, schedule: Q01DX001 (ip), vehicle: carboxymethylcellulose (CMC)
[10] = dose: 400.0 mg/kg/injection, schedule: Q04DX003 (ip), vehicle: Klucel (hydroxypropylcellulose) (HPC)
[11] = dose: 75.0 mg/kg/injection, schedule: Q01DX001 (ip), vehicle: other

Measured: T/C

OC1(c2ccncc2)CCc2ccccc21 (stereo not given)
inactive: dose: 50.0 mg/kg/injection, schedule: Q01DX009 (ip), vehicle: Klucel (hydroxypropylcellulose) (HPC) 101 % of control | [1] 98 % of control | [2] 97 % of control | [3] 102 % of control | [4] 101 % of control

OCC#CCO
inactive: dose: 5.0 mg/kg/injection, schedule: Q01DX001 (ip), vehicle: carboxymethylcellulose (CMC) 95 % of control | dose: 10.0 mg/kg/injection, schedule: Q01DX001 (ip), vehicle: carboxymethylcellulose (CMC) 104 % of control | dose: 12.0 mg/kg/injection, schedule: Q04DX003 (ip), vehicle: saline 98 % of control | dose: 20.0 mg/kg/injection, schedule: Q01DX001 (ip), vehicle: carboxymethylcellulose (CMC) 93 % of control | dose: 25.0 mg/kg/injection, schedule: Q04DX003 (ip), vehicle: saline 104 % of control | dose: 40.0 mg/kg/injection, schedule: Q01DX001 (ip), vehicle: carboxymethylcellulose (CMC) 106 % of control | dose: 50.0 mg/kg/injection, schedule: Q01DX009 (ip), vehicle: other 105 % of control | dose: 50.0 mg/kg/injection, schedule: Q04DX003 (ip), vehicle: saline 95 % of control | dose: 80.0 mg/kg/injection, schedule: Q01DX001 (ip), vehicle: carboxymethylcellulose (CMC) 95 % of control

O=c1[nH]cc(CCCO)c(=O)[nH]1
inactive: [5] 88 % of control | [6] 103 % of control | dose: 200.0 mg/kg/injection, schedule: Q01DX009 (ip), vehicle: saline 93 % of control | dose: 200.0 mg/kg/injection, schedule: Q04DX003 (ip), vehicle: saline 100 % of control | dose: 400.0 mg/kg/injection, schedule: Q01DX009 (ip), vehicle: saline 88 % of control | dose: 400.0 mg/kg/injection, schedule: Q04DX003 (ip), vehicle: saline 92 % of control

CCCC(=O)Nc1cc2c3c(c1)CCCN3CCC2
inactive: dose: 50.0 mg/kg/injection, schedule: Q01DX009 (ip), vehicle: saline with Tween-80 96 % of control

C=CCC(CC)C(=O)Cl (stereo not given)
inactive: dose: 100.0 mg/kg/injection, schedule: Q01DX009 (ip), vehicle: saline with Tween-80 104 % of control | dose: 100.0 mg/kg/injection, schedule: Q04DX003 (ip), vehicle: saline with Tween-80 94 % of control | dose: 200.0 mg/kg/injection, schedule: Q01DX009 (ip), vehicle: saline with Tween-80 91 % of control | dose: 200.0 mg/kg/injection, schedule: Q04DX003 (ip), vehicle: saline with Tween-80 94 % of control | dose: 400.0 mg/kg/injection, schedule: Q01DX009 (ip), vehicle: saline with Tween-80 91 % of control | dose: 400.0 mg/kg/injection, schedule: Q04DX003 (ip), vehicle: saline with Tween-80 102 % of control

CC(O)C1(O)C(O)CC(OC2c3cc4c(c(O)c3[C@@H]3C[C@@]2(C)OC32C=c3cc[nH]c3=N2)C(=O)c2cccc(O)c2C4=O)OC1C (stereo not given in full)
inactive: dose: 0.5 mg/kg/injection, schedule: Q01DX009 (ip), vehicle: saline with Tween-80 101 % of control | dose: 1.0 mg/kg/injection, schedule: Q01DX009 (ip), vehicle: saline with Tween-80 101 % of control | dose: 2.0 mg/kg/injection, schedule: Q01DX009 (ip), vehicle: saline with Tween-80 105 % of control | dose: 2.0 mg/kg/injection, schedule: Q01DX009 (ip), vehicle: saline 112 % of control | dose: 4.0 mg/kg/injection, schedule: Q01DX009 (ip), vehicle: saline with Tween-80 110 % of control | dose: 4.0 mg/kg/injection, schedule: Q01DX009 (ip), vehicle: saline 109 % of control | dose: 8.0 mg/kg/injection, schedule: Q01DX009 (ip), vehicle: saline with Tween-80 103 % of control | dose: 8.0 mg/kg/injection, schedule: Q01DX009 (ip), vehicle: saline 106 % of control | dose: 16.0 mg/kg/injection, schedule: Q01DX009 (ip), vehicle: saline 121 % of control | dose: 32.0 mg/kg/injection, schedule: Q01DX009 (ip), vehicle: saline 104 % of control

CC12CCCC(O)(C1)NC(=O)C2C#N (stereo not given)
inactive: [7] 102 % of control | [8] 97 % of control | [9] 94 % of control

OCC1CCC(n2cnc3c(=S)nc[nH]c32)C1 (stereo not given)
inactive: [7] 102 % of control | [8] 102 % of control | [9] 96 % of control

CC1CCN(c2ccc([N+](=O)[O-])cc2)CC1
inactive: [1] 100 % of control | [2] 97 % of control | [3] 99 % of control | [4] 95 % of control | dose: 400.0 mg/kg/injection, schedule: Q01DX009 (ip), vehicle: Klucel (hydroxypropylcellulose) (HPC) 100 % of control | [10] 101 % of control

CCCCC(CCCC)NCC(C)OC(=O)c1ccc(N)cc1 (stereo not given)
inactive: dose: 9.5 mg/kg/injection, schedule: Q01DX001 (ip), vehicle: other 100 % of control | dose: 19.0 mg/kg/injection, schedule: Q01DX001 (ip), vehicle: other 105 % of control | dose: 38.0 mg/kg/injection, schedule: Q01DX001 (ip), vehicle: other 96 % of control | [11] 92 % of control

CC(C)=CCC(C#N)(CCN(C)C)c1cccc2ccccc12 (stereo not given)
inactive: dose: 25.0 mg/kg/injection, schedule: Q01DX009 (ip), vehicle: saline 98 % of control | dose: 50.0 mg/kg/injection, schedule: Q01DX009 (ip), vehicle: saline 101 % of control | [5] 94 % of control | [6] 98 % of control

COc1cc(C(=O)NN(C)C)cc(OC)c1OC
inactive: [7] 97 % of control | [8] 101 % of control | [9] 101 % of control

CCc1c(CC(=O)O)c2cc(C)ccc2n1Cc1ccc(Cl)cc1
inactive: dose: 12.5 mg/kg/injection, schedule: Q01DX Z (ip), vehicle: saline 95 % of control and 96 % of control | dose: 24.0 mg/kg/injection, schedule: Q01DX Z (ip), vehicle: carboxymethylcellulose (CMC) 91 % of control | dose: 25.0 mg/kg/injection, schedule: Q01DX Z (ip), vehicle: saline 103 % of control and 100 % of control | dose: 36.0 mg/kg/injection, schedule: Q01DX Z (ip), vehicle: carboxymethylcellulose (CMC) 92 % of control | dose: 50.0 mg/kg/injection, schedule: Q01DX Z (ip), vehicle: saline 113 % of control and 102 % of control | dose: 54.0 mg/kg/injection, schedule: Q01DX Z (ip), vehicle: carboxymethylcellulose (CMC) 95 % of control | dose: 100.0 mg/kg/injection, schedule: Q01DX Z (ip), vehicle: saline 95 % of control and 93 % of control | dose: 162.0 mg/kg/injection, schedule: Q01DX Z (ip), vehicle: carboxymethylcellulose (CMC) 94 % of control | dose: 324.0 mg/kg/injection, schedule: Q01DX Z (ip), vehicle: carboxymethylcellulose (CMC) 88 % of control

c1ccc2c3c(ccc2c1)OCCCCCOc1ccc2ccccc2c1-c1c(ccc2ccccc12)OCCOCCOc1ccc2ccccc2c1-3
inactive: dose: 100.0 mg/kg/injection, schedule: Q01DX001 (ip), vehicle: saline with Tween-80 92 % of control | dose: 200.0 mg/kg/injection, schedule: Q01DX001 (ip), vehicle: saline with Tween-80 92 % of control | dose: 400.0 mg/kg/injection, schedule: Q01DX001 (ip), vehicle: saline with Tween-80 98 % of control

O=C(O)C12CCC(CCC1O)C2 (stereo not given)
inactive: [11] 102 % of control | dose: 150.0 mg/kg/injection, schedule: Q01DX001 (ip), vehicle: other 100 % of control | dose: 300.0 mg/kg/injection, schedule: Q01DX001 (ip), vehicle: other 100 % of control

CCOc1ccc(N2CSC(=S)N(c3ccc(OCC)cc3)C2)cc1
inactive: [1] 96 % of control | [2] 92 % of control | [3] 99 % of control | [4] 92 % of control | [10] 92 % of control
